The values below come from paper PMC6339567 (Analytical chemistry, 2018).

One series addresses P-gp (Mus musculus, UniProt P21447). Description: in vitro.
In series [1] the test system is confluent monolayers of primary murine colonic epithelial cells. Particulars: Figure 4A.
A short description of a further series: in vitro. Particulars: mouse.
For series [2], the system named is confluent monolayers of primary murine colonic epithelial cells. It is filed as in vitro ADME, mouse. Conditions: upper bound for all monolayers with TEER >300 Ω cm^2 (n=6).

Chain of P-gp (P21447 whole entry): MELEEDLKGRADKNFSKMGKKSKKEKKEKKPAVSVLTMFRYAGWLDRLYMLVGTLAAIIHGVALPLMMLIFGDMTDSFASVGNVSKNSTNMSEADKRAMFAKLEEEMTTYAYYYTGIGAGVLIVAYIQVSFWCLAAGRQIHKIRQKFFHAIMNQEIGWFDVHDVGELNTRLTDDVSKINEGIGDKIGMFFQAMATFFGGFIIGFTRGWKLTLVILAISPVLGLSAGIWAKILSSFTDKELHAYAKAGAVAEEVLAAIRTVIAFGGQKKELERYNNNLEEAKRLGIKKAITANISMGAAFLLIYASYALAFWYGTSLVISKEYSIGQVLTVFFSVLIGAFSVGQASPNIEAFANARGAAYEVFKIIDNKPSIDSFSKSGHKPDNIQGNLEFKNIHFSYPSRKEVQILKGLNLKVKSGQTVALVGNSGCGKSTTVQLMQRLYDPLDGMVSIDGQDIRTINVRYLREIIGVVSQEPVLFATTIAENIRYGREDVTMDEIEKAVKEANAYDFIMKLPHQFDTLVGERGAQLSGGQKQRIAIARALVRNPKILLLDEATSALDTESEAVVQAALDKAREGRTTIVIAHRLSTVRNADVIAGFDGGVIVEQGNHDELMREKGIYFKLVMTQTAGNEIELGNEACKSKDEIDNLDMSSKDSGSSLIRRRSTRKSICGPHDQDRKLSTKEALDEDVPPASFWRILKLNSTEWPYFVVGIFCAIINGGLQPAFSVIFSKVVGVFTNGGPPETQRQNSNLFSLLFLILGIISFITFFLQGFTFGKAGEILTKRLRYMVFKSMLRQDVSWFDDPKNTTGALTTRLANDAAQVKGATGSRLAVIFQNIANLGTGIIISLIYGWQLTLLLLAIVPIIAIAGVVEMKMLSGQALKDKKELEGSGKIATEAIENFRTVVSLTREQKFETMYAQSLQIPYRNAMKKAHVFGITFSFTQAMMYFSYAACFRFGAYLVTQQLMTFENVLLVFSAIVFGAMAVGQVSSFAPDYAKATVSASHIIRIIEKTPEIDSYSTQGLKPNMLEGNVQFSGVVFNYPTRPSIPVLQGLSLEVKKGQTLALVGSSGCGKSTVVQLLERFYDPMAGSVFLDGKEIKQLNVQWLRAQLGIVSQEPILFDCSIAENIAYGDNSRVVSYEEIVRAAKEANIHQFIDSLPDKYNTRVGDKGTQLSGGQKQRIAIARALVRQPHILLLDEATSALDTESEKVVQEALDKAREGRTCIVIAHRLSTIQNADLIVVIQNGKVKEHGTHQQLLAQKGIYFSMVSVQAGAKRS

What is called efflux ratio is the permeability from basolateral to apical divided by that in the opposite direction, in the common usage. Consider `COC(=O)c1ccccc1-c1c2ccc(=N)cc-2oc2cc(N)ccc12` [Rh123, rhodamine 123], for which the efflux ratio at 2 h, 10 µM on P-gp turned out to be 7.

For orientation: Papp means a coefficient for how fast a substance crosses the barrier. Lower therefore signals slow passage. On to `CC(C)NCC(O)COc1cccc2ccccc12` (stereo not shown) [propranolol], for which the “permeability across day-5 monolayers (in words)” value in series [1] is listed as “high Papp”. The apparent permeability coefficient (Papp) at 3 h, 10 µM in “in vitro” came out at 9.69 ×10⁻⁶ cm/s.

On to lucifer yellow [LY], for which the “Papp for LY, all monolayers with TEER >300 Ω cm^2” value in series [2] is < 0.45 ×10⁻⁶ cm/s.
